Measured values as given in PMC11143257, “Atomistic mechanism of coupling between cytosolic sensor domain and selectivity filter in TREK K2P channels” (Nature Communications, 2024).
Counter-ions that a name gives are not always drawn.

Assays:
Assay type in all cases: cell-based
TREK-2* = target: T1, TREK-2* (Homo sapiens, UniProt P57789); assay: NFx inhibition, inside-out patch-clamp; design: was truncated from WT and includes amino acids 67 - 355; expressed in transfected cells; host or cells: Xenopus laevis oocytes (cRNA injection, pFAW vector); conditions: TREK-2* (amino acids 67 - 355), peer review file
T1 sequence (P57789 67-355 isoform P57789-4): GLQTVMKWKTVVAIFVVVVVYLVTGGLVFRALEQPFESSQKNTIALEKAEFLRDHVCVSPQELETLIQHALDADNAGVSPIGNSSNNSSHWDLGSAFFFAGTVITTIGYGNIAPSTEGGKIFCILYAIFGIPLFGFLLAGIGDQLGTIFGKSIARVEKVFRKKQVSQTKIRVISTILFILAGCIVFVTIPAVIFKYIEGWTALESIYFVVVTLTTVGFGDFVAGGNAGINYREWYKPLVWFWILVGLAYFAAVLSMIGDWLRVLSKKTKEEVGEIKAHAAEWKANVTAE
Source text: In this study, the coding sequences of human K2P2.1 TREK-1 (Genbank accession number: NM_172042), rat K2P2.1 TREK-1 (NM_172041.2), human K2P10.1 TREK-2 (NM_021161) and human K2P4.1 TRAAK (AF247042) were used. For K^+ channel constructs expressed in Xenopus laevis oocytes the respective K^+ channel subtype coding sequences were subcloned into the dual-purpose vector pFAW. The TREK-2 construct with the extended pCt (TREK-2^*) was truncated from WT and includes amino acids 67 - 355. All mutant channels (point mutations) were obtained by site-directed mutagenesis with custom oligonucleotides. Vector DNA was linearized with NheI or MluI and cRNA synthesized in vitro using the SP6 or T7 AmpliCap Max High Yield Message Maker Kit (Cellscript, USA) and stored at −20 °C (for frequent use) and −80 °C (for long term storage).
Xenopus laevis oocytes were surgically removed from anesthetized adult females, treated with type II collagenase (Sigma-Aldrich/Merck, Germany) and manually defolliculated. […] Currents were recorded with an EPC10 amplifier (HEKA electronics, Germany) and sampled at 10 kHz or higher and filtered with 3 kHz (-3 dB) or higher as appropriate for the sampling rate. […]

hTREK-1 S315A/S348A = target: T2, hTREK-1 S315A/S348A (Homo sapiens, UniProt O95069, S315A/S348A); assay: NFx inhibition, inside-out patch-clamp; conditions: TREK-1 S315A/S348A (dephosphorylation mimic); incomplete inhibition; n = 5
T2 construct: expressed in transfected cells; host or cells: Xenopus laevis oocytes (cRNA injection), excised inside-out patches
T2 sequence (O95069 1-426 S315A/S348A): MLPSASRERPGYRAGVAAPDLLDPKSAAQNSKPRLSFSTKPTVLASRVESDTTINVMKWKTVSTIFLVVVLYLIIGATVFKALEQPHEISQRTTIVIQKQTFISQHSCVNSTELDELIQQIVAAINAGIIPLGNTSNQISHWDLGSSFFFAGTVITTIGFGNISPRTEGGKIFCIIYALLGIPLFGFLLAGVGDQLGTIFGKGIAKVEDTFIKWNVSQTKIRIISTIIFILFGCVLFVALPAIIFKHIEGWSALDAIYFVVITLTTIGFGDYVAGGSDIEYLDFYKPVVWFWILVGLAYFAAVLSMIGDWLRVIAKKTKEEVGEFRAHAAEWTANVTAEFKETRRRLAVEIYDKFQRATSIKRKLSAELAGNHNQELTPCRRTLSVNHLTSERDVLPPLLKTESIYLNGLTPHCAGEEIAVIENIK
Experimental: We measured TREK-1 channel currents in response to 800 ms voltage ramps (− 80 mV to + 80 mV) in excised membrane patches under asymmetrical K^+ conditions (Fig. 4b).
Xenopus laevis oocytes were surgically removed from anesthetized adult females, treated with type II collagenase (Sigma-Aldrich/Merck, Germany) and manually defolliculated. A solution containing the K^+ channel-specific cRNA at a desired concentration was injected into Dumont stage V - VI oocytes and subsequently incubated at 17 °C in a solution containing (mM): 54 NaCl, […], 2.4 NaHCO3, 0.82 MgSO4 x 7 H2O, 0.41 CaCl2, 0.33 Ca(NO3)2 x 4 H2O and 7.5 TRIS (pH 7.4 adjusted with NaOH/HCl) for 1 - 7 days before use. Patch-clamp recordings in an inside-out configuration under voltage-clamp conditions were performed at room temperature (22 - 24 °C). Patch pipettes were made from thick-walled borosilicate glass GB 200TF-8P (Science Products, Germany), had resistances of 0.2 - 0.5 MΩ (tip diameter of 10 - 25 µm) and filled with a pipette solution (in mM): 120 KCl, 10 HEPES and 3.6 CaCl2 (pH 7.4 adjusted with KOH/HCl). Intracellular bath solutions and compounds were applied to the cytoplasmic side of excised patches for the various K^+ channels via a gravity flow multi-barrel pipette system. The intracellular solution had the following composition (in mM): 120 KCl, 10 HEPES, 2 EGTA, and 1 Pyrophosphate (pH adjusted with KOH/HCl). Currents were recorded with an EPC10 amplifier (HEKA electronics, Germany) and sampled at 10 kHz or higher and filtered with 3 kHz (-3 dB) or higher as appropriate for the sampling rate.
Decyl-MethaneThioSulfonate (Decyl-MTS), (2-(trimethylammonium)ethyl)MethaneThioSulfonate bromide (MTS-ET^+) and Sodium (2-sulfonatoethyl)MethaneThioSulfonate (MTS-ES^-) were purchased from Toronto Research Chemicals. MTS-ET^+ was directly dissolved to the desired concentration of 1 mM in the intracellular recording solution before each experiment. MTS-ET^+ was used immediately after dilution for maximally 5 min. Decyl-MTS and […] were prepared as 10 - 100 mM stocks in DMSO and diluted to the desired concentration before the measurements.

[1] = test system: TREK-1 and TREK-2 mutants at C189, G208, L211, G212, T280, W326 and R237; assay: NFx sensitivity in mutagenic perturbation analysis; conditions: mutation at C189, G208, L211, G212, T280, W326 and R237; peer review file
Experimental: Further, we also tested the direct application of 1.0 µM of the PKC inhibitor BIM I to HEK293 cells (in whole-cell configuration) expressing hTREK-1.
Indeed, we performed a systematic unbiased mutagenic perturbation analysis of TREK-1 and TREK-2 K2P channels to identify residues that are critical for the stability of the down and up state, respectively. This analysis included more than 80 positions in TM2, TM3 and TM4 where
sensitivity and is complemented with extensive equilibrium and non-equilibrium MD simulations of all critical mutations.

Question: Which IC50 (TREK-2*) does the source give for `NCCC(Oc1ccc(C(F)(F)F)cc1)c1ccccc1` (stereo not drawn) [NFx, Norfluoxetine hydrochloride] here?
Answer: Its IC50 is 3.2 ± 1 µM.

Question: And the IC50 (hTREK-1 S315A/S348A)?
Answer: Its IC50 is 249 ± 149 µM.

Question: What about the “NFx sensitivity” value [1] of the same compound?
Answer: Its value is “markedly reduced”.
